# Experimental data taken from the supplement of paper PMC10307832.
# Tests used:
# Experiment in all cases: relative viability (nuclei count vs DMSO), 5 days (fraction); higher = more cells survive
# [1] = test system: NCI-H1792
# Procedure, shortened: (§1)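 Nuclei were stained with Hoechst during a one-step fixation (final 0.05% Triton X-100, 1% formaldehyde, 1 ug/ml Hoechst) carried out 5 days after dosing, then counted on 4× images. The cells, lung cancer lines in 1536-well plates, had been dosed by pin tool the day after seeding with one drug alone or a fixed anchor-drug dose plus five library-drug doses (not always all listed) in √10 steps. Relative viability is the nuclei count in treated wells divided by that in vehicle wells, and each value is the median of duplicate plates.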
# [2] = test system: 201T
# Procedure, shortened: as §1
# [3] = test system: NCI-H727
# Procedure, shortened: as §1
# [4] = test system: NCI-H1793
# Procedure, shortened: as §1
# [5] = test system: HCC-827
# Procedure, shortened: as §1
# [6] = test system: NCI-H2087
# Procedure, shortened: as §1
# [7] = test system: NCI-H1650
# Procedure, shortened: as §1
# [8] = test system: NCI-H2228
# Procedure, shortened: as §1
# [9] = test system: NCI-H1395
# Procedure, shortened: as §1
# [10] = test system: NCI-H3122
# Procedure, shortened: as §1
# [11] = test system: NCI-H322M
# Procedure, shortened: as §1
# [12] = test system: SK-LU-1
# Procedure, shortened: as §1
# [13] = test system: NCI-H2405
# Procedure, shortened: as §1
# [14] = test system: NCI-H1437
# Procedure, shortened: as §1
# [15] = test system: LCLC-103H
# Procedure, shortened: as §1
# [16] = test system: NCI-H647
# Procedure, shortened: as §1
# [17] = test system: LCLC-97TM1
# Procedure, shortened: as §1
# [18] = test system: RERF-LC-KJ
# Procedure, shortened: as §1
# [19] = test system: BEN
# Procedure, shortened: as §1
# [20] = test system: LXF-289
# Procedure, shortened: as §1
# [21] = test system: CAL-12T
# Procedure, shortened: as §1
# [22] = test system: NCI-H1944
# Procedure, shortened: as §1
compound,measurement,setting,value
O=c1cc(N2CCOCC2)oc2c(-c3cccc4c3sc3ccccc34)cccc12 + CC(=O)Nc1cccc(-n2c(=O)n(C3CC3)c(=O)c3c(Nc4ccc(I)cc4F)n(C)c(=O)c(C)c32)c1 [Trametinib] (partner 0.02 µM),relative viability,[1]; first compound 0.01 µM,0.322
same,relative viability,[1]; first compound 0.03162 µM,0.445
same,relative viability,[1]; first compound 0.3162 µM,0.383
same,relative viability,[1]; first compound 1 µM,0.458
same,relative viability,[2]; first compound 0.01 µM,0.708
same,relative viability,[2]; first compound 0.03162 µM,0.683
same,relative viability,[2]; first compound 0.1 µM,0.69
same,relative viability,[2]; first compound 0.3162 µM,0.721
same,relative viability,[2]; first compound 1 µM,0.701
same,relative viability,[3]; first compound 0.01 µM,0.38
same,relative viability,[3]; first compound 0.03162 µM,0.372
same,relative viability,[3]; first compound 0.1 µM,0.389
same,relative viability,[3]; first compound 0.3162 µM,0.391
same,relative viability,[3]; first compound 1 µM,0.37
same,relative viability,[4]; first compound 0.01 µM,0.372
same,relative viability,[4]; first compound 0.03162 µM,0.411
same,relative viability,[4]; first compound 0.1 µM,0.504
same,relative viability,[4]; first compound 0.3162 µM,0.406
same,relative viability,[4]; first compound 1 µM,0.38
same,relative viability,[5]; first compound 0.01 µM,0.528
same,relative viability,[5]; first compound 0.03162 µM,0.508
same,relative viability,[5]; first compound 0.1 µM,0.547
same,relative viability,[5]; first compound 0.3162 µM,0.504
same,relative viability,[5]; first compound 1 µM,0.525
same,relative viability,[6]; first compound 0.01 µM,0.225
same,relative viability,[6]; first compound 0.03162 µM,0.195
same,relative viability,[6]; first compound 0.1 µM,0.231
same,relative viability,[6]; first compound 0.3162 µM,0.188
same,relative viability,[6]; first compound 1 µM,0.214
same,relative viability,[7]; first compound 0.01 µM,0.526
same,relative viability,[7]; first compound 0.03162 µM,0.643
same,relative viability,[7]; first compound 0.1 µM,0.782
same,relative viability,[7]; first compound 0.3162 µM,0.571
same,relative viability,[7]; first compound 1 µM,0.517
same,relative viability,[8]; first compound 0.01 µM,0.723
same,relative viability,[8]; first compound 0.03162 µM,0.424
same,relative viability,[8]; first compound 0.1 µM,0.43
same,relative viability,[8]; first compound 0.3162 µM,0.557
same,relative viability,[8]; first compound 1 µM,0.534
same,relative viability,[9]; first compound 0.03162 µM,1.1
same,relative viability,[9]; first compound 0.1 µM,1.02
same,relative viability,[9]; first compound 0.3162 µM,1.07
same,relative viability,[9]; first compound 1 µM,1.01
same,relative viability,[10]; first compound 0.01 µM,0.217
same,relative viability,[10]; first compound 0.03162 µM,0.225
same,relative viability,[10]; first compound 0.1 µM,0.245
same,relative viability,[10]; first compound 0.3162 µM,0.216
same,relative viability,[10]; first compound 1 µM,0.202
same,relative viability,[11]; first compound 0.01 µM,0.494
same,relative viability,[11]; first compound 0.03162 µM,0.486
same,relative viability,[11]; first compound 0.3162 µM,0.495
same,relative viability,[11]; first compound 1 µM,0.494
same,relative viability,[12]; first compound 0.01 µM,0.521
same,relative viability,[12]; first compound 0.03162 µM,0.453
same,relative viability,[12]; first compound 0.1 µM,0.505
same,relative viability,[12]; first compound 0.3162 µM,0.443
same,relative viability,[12]; first compound 1 µM,0.5
same,relative viability,[13]; first compound 0.01 µM,0.751
same,relative viability,[13]; first compound 0.03162 µM,0.664
same,relative viability,[13]; first compound 0.1 µM,0.631
same,relative viability,[13]; first compound 0.3162 µM,0.686
same,relative viability,[13]; first compound 1 µM,0.665
same,relative viability,[14]; first compound 0.01 µM,0.693
same,relative viability,[14]; first compound 0.03162 µM,0.548
same,relative viability,[14]; first compound 0.1 µM,0.531
same,relative viability,[14]; first compound 0.3162 µM,0.508
same,relative viability,[14]; first compound 1 µM,0.502
same,relative viability,[15]; first compound 0.01 µM,0.712
same,relative viability,[15]; first compound 0.03162 µM,0.698
same,relative viability,[15]; first compound 0.1 µM,0.678
same,relative viability,[15]; first compound 0.3162 µM,0.652
same,relative viability,[15]; first compound 1 µM,0.663
same,relative viability,[16]; first compound 0.01 µM,0.503
same,relative viability,[16]; first compound 0.03162 µM,0.489
same,relative viability,[16]; first compound 0.1 µM,0.487
same,relative viability,[16]; first compound 0.3162 µM,0.449
same,relative viability,[16]; first compound 1 µM,0.472
same,relative viability,[17]; first compound 0.01 µM,0.197
same,relative viability,[17]; first compound 0.03162 µM,0.161
same,relative viability,[17]; first compound 0.1 µM,0.173
same,relative viability,[17]; first compound 0.3162 µM,0.173
same,relative viability,[17]; first compound 1 µM,0.193
same,relative viability,[18]; first compound 0.01 µM,0.824
same,relative viability,[18]; first compound 0.03162 µM,0.874
same,relative viability,[18]; first compound 0.1 µM,0.936
same,relative viability,[18]; first compound 0.3162 µM,0.836
same,relative viability,[18]; first compound 1 µM,0.798
same,relative viability,[19]; first compound 0.01 µM,1.06
same,relative viability,[19]; first compound 0.03162 µM,1.07
same,relative viability,[19]; first compound 0.1 µM,1.06
same,relative viability,[19]; first compound 0.3162 µM,1.01
same,relative viability,[19]; first compound 1 µM,0.943
same,relative viability,[20]; first compound 0.01 µM,0.672
same,relative viability,[20]; first compound 0.03162 µM,0.629
same,relative viability,[20]; first compound 0.1 µM,0.662
same,relative viability,[20]; first compound 0.3162 µM,0.673
same,relative viability,[20]; first compound 1 µM,0.695
same,relative viability,[21]; first compound 0.01 µM,0.334
same,relative viability,[21]; first compound 0.03162 µM,0.417
same,relative viability,[21]; first compound 0.1 µM,0.354
same,relative viability,[21]; first compound 0.3162 µM,0.381
same,relative viability,[21]; first compound 1 µM,0.363
same,relative viability,[22]; first compound 0.01 µM,0.448
same,relative viability,[22]; first compound 0.03162 µM,0.403
same,relative viability,[22]; first compound 0.1 µM,0.396
same,relative viability,[22]; first compound 0.3162 µM,0.411
same,relative viability,[22]; first compound 1 µM,0.363
